Experimental data taken from patent US20180188224A1, “METHOD FOR CONSTRUCTING A SENSORY SPACE” (CENTRE SCIENTIFIQUE ET TECHNIQUE DU BATIMENT (CSTB), priority 2015, published 2018).
“And” between values parts separate entries of the source, which are not always exact repeats. Identical values can stand only once.

How the values were obtained:
[1] = tested on: four non-smoking volunteers (2 men and 2 women); assay: Hedonic score, 11-point scale (0 very unpleasant to 10 very pleasant, 5 neutral); assay type: in vivo, human
Description: (§1) In this test, four non-smoking volunteers (2 men and 2 women) were chosen from 12 people for their performance in taste recognition. Their mean age was 32 years, ranging from 24 to 40 years. […] These four people were trained for several months to recognize and detect the four basic tastes, and also regarding the procedures of sensory and physiological analysis.
(§2) The four basic tastes (sweet, salty, sour and bitter) were used. The solutions were prepared with citric acid for the sour taste, caffeine for the bitter taste, sodium chloride for the salty taste and sucrose for the sweet taste (all purchased from Sigma Aldrich, France) in Evian water. Evian water was also used as control and blank. Each taste was prepared with the four concentrations mentioned in table 1.
(§3) The amount of solution to be tested was standardized at 10 ml. In order to impregnate the whole of the oral cavity, the subjects kept the solution in their mouth for 5 s before swallowing it.
(§4) The sessions were individual and the subjects were asked not to eat or drink anything for at least 1 h before the test. They arrived 15 min before the start of the session in order to acclimatize to the environmental conditions, in particular the temperature of the room (kept constant at 23° C.) and to be resting seated on a comfortable chair. The 16 solutions for testing and two additional samples of water containing solely Evian water, added to the references, were presented monadically following a test order determined from a “balanced incomplete block design”. During a session, 9 samples out of 18 were presented to minimize sensory fatigue. In addition, a sample of Evian was always tested as a “blank” sample in order to avoid the first-order effect (Lawless, H. T. & Heymann, H., 2010, Sensory evaluation of food: Principles and practices. Springer, New York) and was excluded from the analysis. A light signal was sent to give the instruction to test the sample. When the disturbance to the nervous system returned to its baseline level (after approximately 1 min), a second light signal indicated to the subjects that they should complete a questionnaire regarding the stimulus tested previously. The first part of the questionnaire was linked to the identification of the taste (i.e. determining the quality of the taste); the subjects had to choose between five labels: sweet, salty, sour, bitter or neutral. They then had to assign a taste intensity score on an 11-point scale (from 0 “not intense” (i.e. taste of Evian only) to 10 “very intense”) and finally to give a hedonic score on an 11-point scale (from 0 “very unpleasant” to 10 “very pleasant”, 5 being “neutral”).
(§5) This procedure was repeated for each of the 9 stimuli. A session lasted approximately 45 min including a debriefing at the end of the test to ensure understanding of the sense of the signal variations. The experiment was repeated 12 times per subject, meaning that the data are composed of 6 data sets per subject and per product and 12 data sets for the Evian product per subject. Thus, the database consists of 432 samples.
(§6) The effect of the taste on the hedonic and intensity scores was analyzed by an analysis of variance (ANOVA) including the product effect, the subject effect and the product-subject interaction. The subject effect was fixed because there were only 4 subjects and the results could only be applied to a particular schema. The differences were considered to be significant at a level of 0.05.

[2] = tested on: subject 3; assay: Skin blood microcirculation (SKBF) response to taste stimuli, PCA sensory space (ESRP); assay type: in vivo, human; details: concentration 3
Description: A Periflux PF 5010 (Perimed AB, Sweden) system was chosen, which enables non-invasive monitoring of blood perfusion in the capillaries, arterioles and venules.
The unit of blood perfusion is arbitrary and corresponds to the product of the mean rate of displacement of the red blood cells by their concentration. The system Periflux PF 5010 has a 780 nm, 1 mm diameter laser beam without thermal effect. An optical fiber probe PR407 is used. The low-energy laser beam is transmitted by the probe to the tissue. A portion of the light reflects off the static structures and another portion of the light reflects off the moving blood cells. When the light reflects off a moving cell, the wavelength is modified, which corresponds to the Doppler effect. The scattered light collected by the optical fiber is used to calculate the perfusion value. The measurement is expressed in perfusion units (PU). Recording was carried out on the pad of the index finger of the non-dominant hand, due to the high level of vascularization of this zone. The perfusion signals were recorded by an 8-channel PowerLab PL35088/35 acquisition system; the data were collected at a frequency of 1 kHz and analyzed by the LabChart® software (AD instruments Ltd, United Kingdom).
. Then, the peak was analyzed manually by selecting the whole of the peak and analyzing it with the LabChart® software (FIG. 1).
Several shape parameters were extracted from the signal (i.e. amplitude, duration, gradient). […]
The SKBF responses were analyzed individually by one-way ANOVA (product effect), the subjects having their own “preferential channel” (Lacey, J. I., Bateman, D. E. & VanLEHN, R., 1953, Autonomic response specificity: An experimental study. Psychosomatic Medicine, 15, 8-21). […]

[3] = cited from earlier work; for detection threshold: representative compound of a primary taste
[4] = tested on: four non-smoking volunteers (2 men and 2 women); assay: Taste identification questionnaire, trained panel (count of 6 repetitions per subject in which the stimulus was given each taste label; level of recognition %); assay type: in vivo, human
Description: as §1, §2, §3, §4, §5

[5] = tested on: four non-smoking volunteers (2 men and 2 women); assay: Taste intensity score, 11-point scale (0 not intense to 10 very intense); assay type: in vivo, human; details: concentration 4; averaged over 4 subjects, 6 repetitions each
Description: as §1, §2, §3, §4, §5, §6

Cn1c(=O)c2c(ncn2C)n(C)c1=O [Caffeine, caffeine]
hedonic score ([1]; concentration 3): 3.5±1.8 | hedonic score ([1]; concentration 4 (highest)): 3.5±2.3 | SKBF disturbance (signal width, area of the peak; ANOVA) [2]: significantly stronger disturbance than the others | detection threshold [3]: 0.05 to 0.35 g/L | Individual recognition score: Bitter ([4]; human, in vivo): 6 (9×) and 4 (2×) and 5 (4×) and 3 | Individual recognition score: Neutral ([4]; human, in vivo): 0 (11×) and 1 (3×) and 3 and 2 | Individual recognition score: Salty ([4]; human, in vivo): 0 | Individual recognition score: Sour ([4]; human, in vivo): 0 (14×) and 1 (2×) | Individual recognition score: Sweet ([4]; human, in vivo): 0 (15×) and 1 | Level of Recognition %: Bitter ([4]; human, in vivo): 83% and 84% | Level of Recognition %: Salty ([4]; human, in vivo): 0% | Level of Recognition %: Sour ([4]; human, in vivo): 0% and 4% | Level of Recognition %: Sweet ([4]; human, in vivo): 0% and 4%

OC[C@H]1O[C@@](CO)(O[C@H]2O[C@H](CO)[C@@H](O)[C@H](O)[C@H]2O)[C@@H](O)[C@@H]1O [Sucrose, sucrose]
hedonic score ([1]; concentration 4 (highest)): 7.0±2.6 | detection threshold concentration of the basic taste ([3]; literature (Purves 2005; Robinson 2005)): approximately 20 mmol·l^−1 | detection threshold [3]: 6.846 g/L | intensity score [5]: 8.3±0.9 | Individual recognition score: Bitter ([4]; Subject 1, dilution 1): 0 | Individual recognition score: Neutral ([4]; Subject 1, dilution 1): 0 | Individual recognition score: Salty ([4]; Subject 1, dilution 1): 0 | Individual recognition score: Sour ([4]; Subject 1, dilution 1): 0 | Individual recognition score: Sweet ([4]; Subject 1, dilution 1): 6 | Individual recognition score: Bitter ([4]; Subject 1, dilution 2): 0 | Individual recognition score: Neutral ([4]; Subject 1, dilution 2): 0 | Individual recognition score: Salty ([4]; Subject 1, dilution 2): 0 | Individual recognition score: Sour ([4]; Subject 1, dilution 2): 0 | Individual recognition score: Sweet ([4]; Subject 1, dilution 2): 6 | Individual recognition score: Bitter ([4]; Subject 1, dilution 3): 0 | Individual recognition score: Neutral ([4]; Subject 1, dilution 3): 0 | Individual recognition score: Salty ([4]; Subject 1, dilution 3): 0 | Individual recognition score: Sour ([4]; Subject 1, dilution 3): 0 | Individual recognition score: Sweet ([4]; Subject 1, dilution 3): 6 | Individual recognition score: Bitter ([4]; Subject 1, dilution 4): 0 | Individual recognition score: Neutral ([4]; Subject 1, dilution 4): 0 | Individual recognition score: Salty ([4]; Subject 1, dilution 4): 0 | Individual recognition score: Sour ([4]; Subject 1, dilution 4): 0 | Individual recognition score: Sweet ([4]; Subject 1, dilution 4): 6 | Individual recognition score: Bitter ([4]; Subject 2, dilution 1): 0 | Individual recognition score: Neutral ([4]; Subject 2, dilution 1): 0 | Individual recognition score: Salty ([4]; Subject 2, dilution 1): 0 | Individual recognition score: Sour ([4]; Subject 2, dilution 1): 0 | Individual recognition score: Sweet ([4]; Subject 2, dilution 1): 6 | Individual recognition score: Bitter ([4]; Subject 2, dilution 2): 0 | Individual recognition score: Neutral ([4]; Subject 2, dilution 2): 0 | Individual recognition score: Salty ([4]; Subject 2, dilution 2): 0 | Individual recognition score: Sour ([4]; Subject 2, dilution 2): 0 | Individual recognition score: Sweet ([4]; Subject 2, dilution 2): 6 | Individual recognition score: Bitter ([4]; Subject 2, dilution 3): 0 | Individual recognition score: Neutral ([4]; Subject 2, dilution 3): 0 | Individual recognition score: Salty ([4]; Subject 2, dilution 3): 0 | Individual recognition score: Sour ([4]; Subject 2, dilution 3): 0 | Individual recognition score: Sweet ([4]; Subject 2, dilution 3): 6 | Individual recognition score: Bitter ([4]; Subject 2, dilution 4): 0 | Individual recognition score: Neutral ([4]; Subject 2, dilution 4): 0 | Individual recognition score: Salty ([4]; Subject 2, dilution 4): 0 | Individual recognition score: Sour ([4]; Subject 2, dilution 4): 0 | Individual recognition score: Sweet ([4]; Subject 2, dilution 4): 6 | Individual recognition score: Bitter ([4]; Subject 3, dilution 1): 0 | Individual recognition score: Neutral ([4]; Subject 3, dilution 1): 3 | Individual recognition score: Salty ([4]; Subject 3, dilution 1): 0 | Individual recognition score: Sour ([4]; Subject 3, dilution 1): 0 | Individual recognition score: Sweet ([4]; Subject 3, dilution 1): 3 | Individual recognition score: Bitter ([4]; Subject 3, dilution 2): 0 | Individual recognition score: Neutral ([4]; Subject 3, dilution 2): 0 | Individual recognition score: Salty ([4]; Subject 3, dilution 2): 0 | Individual recognition score: Sour ([4]; Subject 3, dilution 2): 0 | Individual recognition score: Sweet ([4]; Subject 3, dilution 2): 6 | Individual recognition score: Bitter ([4]; Subject 3, dilution 3): 0 | Individual recognition score: Neutral ([4]; Subject 3, dilution 3): 0 | Individual recognition score: Salty ([4]; Subject 3, dilution 3): 0 | Individual recognition score: Sour ([4]; Subject 3, dilution 3): 0 | Individual recognition score: Sweet ([4]; Subject 3, dilution 3): 6 | Individual recognition score: Bitter ([4]; Subject 3, dilution 4): 0 | Individual recognition score: Neutral ([4]; Subject 3, dilution 4): 0 | Individual recognition score: Salty ([4]; Subject 3, dilution 4): 0 | Individual recognition score: Sour ([4]; Subject 3, dilution 4): 0 | Individual recognition score: Sweet ([4]; Subject 3, dilution 4): 6 | Individual recognition score: Bitter ([4]; Subject 4, dilution 1): 0 | Individual recognition score: Neutral ([4]; Subject 4, dilution 1): 0 | Individual recognition score: Salty ([4]; Subject 4, dilution 1): 0 | Individual recognition score: Sour ([4]; Subject 4, dilution 1): 0 | Individual recognition score: Sweet ([4]; Subject 4, dilution 1): 6 | Individual recognition score: Bitter ([4]; Subject 4, dilution 2): 0 | Individual recognition score: Neutral ([4]; Subject 4, dilution 2): 0 | Individual recognition score: Salty ([4]; Subject 4, dilution 2): 0 | Individual recognition score: Sour ([4]; Subject 4, dilution 2): 0 | Individual recognition score: Sweet ([4]; Subject 4, dilution 2): 6 | Individual recognition score: Bitter ([4]; Subject 4, dilution 3): 0 | Individual recognition score: Neutral ([4]; Subject 4, dilution 3): 0 | Individual recognition score: Salty ([4]; Subject 4, dilution 3): 0 | Individual recognition score: Sour ([4]; Subject 4, dilution 3): 0 | Individual recognition score: Sweet ([4]; Subject 4, dilution 3): 6 | Individual recognition score: Bitter ([4]; Subject 4, dilution 4): 0 | Individual recognition score: Neutral ([4]; Subject 4, dilution 4): 0 | Individual recognition score: Salty ([4]; Subject 4, dilution 4): 0 | Individual recognition score: Sour ([4]; Subject 4, dilution 4): 0 | Individual recognition score: Sweet ([4]; Subject 4, dilution 4): 6 | Level of Recognition %: Bitter ([4]; four subjects, dilution 1): 0% | Level of Recognition %: Neutral ([4]; four subjects, dilution 1): 12% | Level of Recognition %: Salty ([4]; four subjects, dilution 1): 0% | Level of Recognition %: Sour ([4]; four subjects, dilution 1): 0% | Level of Recognition %: Sweet ([4]; four subjects, dilution 1): 88% | Level of Recognition %: Bitter ([4]; four subjects, dilution 2): 0% | Level of Recognition %: Neutral ([4]; four subjects, dilution 2): 0% | Level of Recognition %: Salty ([4]; four subjects, dilution 2): 0% | Level of Recognition %: Sour ([4]; four subjects, dilution 2): 0% | Level of Recognition %: Sweet ([4]; four subjects, dilution 2): 100% | Level of Recognition %: Bitter ([4]; four subjects, dilution 3): 0% | Level of Recognition %: Neutral ([4]; four subjects, dilution 3): 0% | Level of Recognition %: Salty ([4]; four subjects, dilution 3): 0% | Level of Recognition %: Sour ([4]; four subjects, dilution 3): 0% | Level of Recognition %: Sweet ([4]; four subjects, dilution 3): 100% | Level of Recognition %: Bitter ([4]; four subjects, dilution 4): 0% | Level of Recognition %: Neutral ([4]; four subjects, dilution 4): 0% | Level of Recognition %: Salty ([4]; four subjects, dilution 4): 0% | Level of Recognition %: Sour ([4]; four subjects, dilution 4): 0% | Level of Recognition %: Sweet ([4]; four subjects, dilution 4): 100%
